Laboratory results reported in paper doi:10.1101/2023.10.24.563163v2, “Targeting cancer with small molecule pan-KRAS degraders” (biorxiv, 2024).
pIC50: −log10 of the molar value.

Key:
KRAS^G12C = KRAS^G12C (Homo sapiens, UniProt P01116, G12C); set-up: endogenous in NCI-H358; KRAS degradation by capillary electrophoresis (Wes) immunodetection; conditions: NCI-H358; 6 h; degrader
Description: Protein Detection by Capillary Electrophoresis Cells (50 000) were seeded the day before treatment into 96-well clear-flat bottom plates and incubated overnight (37 °C, humidified tissue culture incubator, 5% CO2). […] At the end of the incubation, medium was removed, cells washed with ice cold PBS, PBS removed and 50 µL lysis buffer (Meso Scale Discovery #R60TX-2) supplemented with 1:100 protease inhibitor solution, 1:100 phosphatase inhibitor I, 1:100 phosphatase inhibitor II (Meso Scale Discovery #R70AA-1), 0.5 µL/mL Benzonase (Novagen #70664-3) and 10 mM dithiothreitol added to each well. Plates with lysis buffer were immediately transferred to -80 °C freezer for at least 2 hours and then thawed on ice. Lysates were transferred to a 96 well V-bottom plate and insoluble debris was pelleted by centrifugation for 20 min. at 4 000 rpm. 40 µL of the supernatant were transferred to a fresh Eppendorf PCR plate. Analysis of protein levels was conducted using the Wes System, ProteinSimple (https://www.bio-techne.com/) as specified by the manufacturer. Briefly, Wes Master Mix (12-230 kDa WES Separation Module, 8 × 25 capillary cartridges, ProteinSimple #SM-W004) and molecular weight markers were prepared as specified in the manufacturer’s recommendations. To detect primary antibodies, anti-rabbit (Protein Simple #DM-001) or anti-mouse (Protein Simple #DM-002) detection modules were used. […]

VHL-NanoLuc = target: T1, VHL-NanoLuc (Homo sapiens, UniProt P40337); assay: NanoBRET VHL target engagement; assay type: cell-based
T1 construct: VHL-NanoLuc fusion (Promega) transfected into HEK293; endogenous elongins
T1 sequence (P40337 whole entry, the tested form may be a part): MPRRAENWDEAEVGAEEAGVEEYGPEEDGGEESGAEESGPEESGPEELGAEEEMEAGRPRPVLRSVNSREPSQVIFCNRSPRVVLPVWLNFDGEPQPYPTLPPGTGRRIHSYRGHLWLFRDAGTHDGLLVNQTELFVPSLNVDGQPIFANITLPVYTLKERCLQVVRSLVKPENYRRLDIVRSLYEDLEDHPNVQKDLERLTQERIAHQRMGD

Sequence of KRAS^G12C (P01116 whole entry G12C): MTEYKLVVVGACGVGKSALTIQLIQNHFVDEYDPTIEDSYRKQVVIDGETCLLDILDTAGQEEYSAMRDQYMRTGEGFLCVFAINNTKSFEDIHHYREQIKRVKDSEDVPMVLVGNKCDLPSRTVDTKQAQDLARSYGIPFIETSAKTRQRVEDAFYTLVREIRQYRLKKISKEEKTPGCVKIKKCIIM

DC50 (KRAS^G12C) | pIC50 (VHL-NanoLuc) | Structure (SMILES)
19.6 nM |  | Cc1ncsc1-c1ccc(CNC(=O)[C@@H]2C[C@@H](O)CN2C(=O)[C@@H](c2cc(OCCCCN3CCCN(c4nccc(-c5noc([C@@]6(C)CCCc7sc(N)c(C#N)c76)n5)n4)[C@@H](C)C3)no2)C(C)C)cc1 [compound 4]
159 nM |  | Cc1ncsc1-c1ccc(CNC(=O)[C@@H]2C[C@@H](O)CN2C(=O)[C@@H](NC(=O)CCCCCN2CCCN(c3nccc(-c4noc([C@@]5(C)CCCc6sc(N)c(C#N)c65)n4)n3)[C@@H](C)C2)C(C)(C)C)cc1 [compound 3]
 | 5.30 | Cc1ncsc1-c1ccc(CNC(=O)[C@@H]2C[C@@H](O)CN2C(=O)[C@@H](NC(=O)COCCCN2CCCN(c3nccc(-c4noc([C@@]5(C)CCCc6sc(N)c(C#N)c65)n4)n3)[C@@H](C)C2)C(C)(C)C)cc1 [compound 2]
